This is an account of results in PMC4770715, “LIM kinase inhibitors disrupt mitotic microtubule organization and impair tumor cell proliferation” (Oncotarget, 2015).

In one assay the target is LIMK2 (Homo sapiens, UniProt P53671). The experiment in a line: in vitro kinase enzyme assay. In kind it is biochemical.
Assay [1] deals with T1, LIMK1 (Homo sapiens, UniProt P53667). Nature of the assay: biochemical. More on the design: KINOMEscan active-site competition binding, percent of control (100 = no competition). Particulars: competition binding, percent control.
T1 sequence (P53667 whole entry): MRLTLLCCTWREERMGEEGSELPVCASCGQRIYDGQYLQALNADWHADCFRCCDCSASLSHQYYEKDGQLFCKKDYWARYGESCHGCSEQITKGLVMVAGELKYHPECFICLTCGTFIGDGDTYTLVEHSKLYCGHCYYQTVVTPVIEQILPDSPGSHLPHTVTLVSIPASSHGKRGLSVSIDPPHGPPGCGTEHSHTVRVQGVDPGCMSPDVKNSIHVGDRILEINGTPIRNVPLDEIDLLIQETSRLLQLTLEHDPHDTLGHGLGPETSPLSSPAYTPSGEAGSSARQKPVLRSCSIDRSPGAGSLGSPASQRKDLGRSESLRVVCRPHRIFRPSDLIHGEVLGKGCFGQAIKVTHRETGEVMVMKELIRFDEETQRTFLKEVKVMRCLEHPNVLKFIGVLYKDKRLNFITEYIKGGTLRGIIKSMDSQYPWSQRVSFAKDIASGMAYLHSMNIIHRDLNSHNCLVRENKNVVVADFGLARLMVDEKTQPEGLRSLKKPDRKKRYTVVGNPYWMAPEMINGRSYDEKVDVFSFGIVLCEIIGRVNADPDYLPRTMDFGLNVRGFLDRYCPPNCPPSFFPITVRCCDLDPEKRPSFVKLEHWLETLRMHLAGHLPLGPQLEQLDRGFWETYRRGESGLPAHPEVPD
Text: Kinases inhibited >25% to 50% have yellow circles, 51% to 75% have orange circles, and >76% have red circles. In each case, the size of the circle is proportional to percentage inhibition.
In the next assay the target is KIT(A829P) (Homo sapiens, UniProt P10721, A829P). Nature of the assay: biochemical. Also noted: KINOMEscan active-site competition binding, percent of control (100 = no competition). Particulars: competition binding, percent control.
Sequence of KIT(A829P) (P10721 whole entry A829P): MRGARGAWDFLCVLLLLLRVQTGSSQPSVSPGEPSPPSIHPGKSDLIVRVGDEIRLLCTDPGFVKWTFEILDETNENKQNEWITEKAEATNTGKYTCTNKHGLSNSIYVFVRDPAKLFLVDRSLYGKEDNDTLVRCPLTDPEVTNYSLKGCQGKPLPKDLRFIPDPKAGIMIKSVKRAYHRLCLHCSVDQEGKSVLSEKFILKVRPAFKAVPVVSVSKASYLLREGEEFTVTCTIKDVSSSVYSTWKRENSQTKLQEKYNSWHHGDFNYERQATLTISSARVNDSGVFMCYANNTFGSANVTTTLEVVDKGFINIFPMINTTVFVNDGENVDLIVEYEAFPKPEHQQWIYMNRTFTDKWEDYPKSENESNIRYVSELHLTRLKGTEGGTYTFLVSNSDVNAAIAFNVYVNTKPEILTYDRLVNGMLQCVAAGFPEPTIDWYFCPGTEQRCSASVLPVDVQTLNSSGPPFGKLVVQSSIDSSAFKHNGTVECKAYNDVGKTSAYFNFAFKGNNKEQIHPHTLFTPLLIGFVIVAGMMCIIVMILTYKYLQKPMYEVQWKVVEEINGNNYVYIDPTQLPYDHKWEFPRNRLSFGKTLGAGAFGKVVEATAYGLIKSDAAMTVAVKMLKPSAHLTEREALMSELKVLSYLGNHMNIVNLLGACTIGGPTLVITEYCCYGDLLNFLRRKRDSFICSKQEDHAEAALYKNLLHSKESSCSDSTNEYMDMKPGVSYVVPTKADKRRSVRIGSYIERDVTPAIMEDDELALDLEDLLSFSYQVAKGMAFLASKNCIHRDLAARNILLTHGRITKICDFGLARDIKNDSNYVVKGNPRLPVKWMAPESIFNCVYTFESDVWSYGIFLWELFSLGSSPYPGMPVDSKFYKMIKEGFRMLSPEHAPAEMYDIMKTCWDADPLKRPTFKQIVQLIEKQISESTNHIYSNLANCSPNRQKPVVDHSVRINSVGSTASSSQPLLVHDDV
The target of assay [2] is T2, RPS6KA4(Kin.Dom.1-N-terminal) (Homo sapiens, UniProt O75676).
T2 construct: Kin.Dom.1-N-terminal
T2 sequence (O75676 whole entry): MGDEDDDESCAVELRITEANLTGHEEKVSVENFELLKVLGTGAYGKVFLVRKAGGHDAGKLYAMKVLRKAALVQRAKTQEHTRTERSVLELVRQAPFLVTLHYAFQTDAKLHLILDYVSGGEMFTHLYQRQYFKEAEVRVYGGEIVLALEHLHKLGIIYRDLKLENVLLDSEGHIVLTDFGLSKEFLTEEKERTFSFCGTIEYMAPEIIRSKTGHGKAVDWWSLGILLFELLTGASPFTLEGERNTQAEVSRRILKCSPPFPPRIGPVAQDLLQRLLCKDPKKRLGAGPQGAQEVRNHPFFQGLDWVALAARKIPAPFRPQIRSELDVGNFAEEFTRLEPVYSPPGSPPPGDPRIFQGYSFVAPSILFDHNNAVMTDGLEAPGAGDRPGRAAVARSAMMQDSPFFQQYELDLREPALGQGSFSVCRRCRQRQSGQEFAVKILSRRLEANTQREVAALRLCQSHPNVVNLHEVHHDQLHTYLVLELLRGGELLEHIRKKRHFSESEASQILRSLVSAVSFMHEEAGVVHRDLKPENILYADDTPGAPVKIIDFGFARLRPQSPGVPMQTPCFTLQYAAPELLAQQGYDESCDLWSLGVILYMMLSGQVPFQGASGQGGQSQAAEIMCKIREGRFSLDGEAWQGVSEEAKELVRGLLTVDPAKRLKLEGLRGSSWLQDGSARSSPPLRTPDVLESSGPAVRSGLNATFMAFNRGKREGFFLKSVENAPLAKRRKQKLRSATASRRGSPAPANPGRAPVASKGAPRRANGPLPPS
The experiment in a line: biochemical. Particulars: competition binding, percent control. More on the design: KINOMEscan active-site competition binding, percent of control (100 = no competition).

In a further assay the target is MAP3K3 (Homo sapiens, UniProt Q99759). The experiment in a line: biochemical. More on the design: KINOMEscan active-site competition binding, percent of control (100 = no competition). Particulars: competition binding, percent control.
Sequence of MAP3K3 (Q99759 whole entry): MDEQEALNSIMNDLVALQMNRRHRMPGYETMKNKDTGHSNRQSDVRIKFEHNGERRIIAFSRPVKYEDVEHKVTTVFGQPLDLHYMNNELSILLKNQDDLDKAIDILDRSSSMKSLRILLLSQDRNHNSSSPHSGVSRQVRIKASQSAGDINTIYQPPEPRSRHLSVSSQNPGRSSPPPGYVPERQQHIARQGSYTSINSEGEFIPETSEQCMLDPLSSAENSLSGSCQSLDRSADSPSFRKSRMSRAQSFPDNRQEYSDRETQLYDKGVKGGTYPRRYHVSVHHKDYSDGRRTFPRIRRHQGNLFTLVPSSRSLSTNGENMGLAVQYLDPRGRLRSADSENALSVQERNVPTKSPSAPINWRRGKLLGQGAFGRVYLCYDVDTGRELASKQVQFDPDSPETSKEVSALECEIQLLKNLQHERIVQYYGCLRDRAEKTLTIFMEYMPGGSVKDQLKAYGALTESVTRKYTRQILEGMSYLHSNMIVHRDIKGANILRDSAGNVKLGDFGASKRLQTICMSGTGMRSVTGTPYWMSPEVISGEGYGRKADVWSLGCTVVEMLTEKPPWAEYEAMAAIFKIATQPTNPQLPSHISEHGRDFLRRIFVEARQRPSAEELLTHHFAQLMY
The next assay deals with T3, DRAK1 (Homo sapiens, UniProt Q9UEE5).
T3 construct: gene STK17A
T3 sequence (Q9UEE5 whole entry): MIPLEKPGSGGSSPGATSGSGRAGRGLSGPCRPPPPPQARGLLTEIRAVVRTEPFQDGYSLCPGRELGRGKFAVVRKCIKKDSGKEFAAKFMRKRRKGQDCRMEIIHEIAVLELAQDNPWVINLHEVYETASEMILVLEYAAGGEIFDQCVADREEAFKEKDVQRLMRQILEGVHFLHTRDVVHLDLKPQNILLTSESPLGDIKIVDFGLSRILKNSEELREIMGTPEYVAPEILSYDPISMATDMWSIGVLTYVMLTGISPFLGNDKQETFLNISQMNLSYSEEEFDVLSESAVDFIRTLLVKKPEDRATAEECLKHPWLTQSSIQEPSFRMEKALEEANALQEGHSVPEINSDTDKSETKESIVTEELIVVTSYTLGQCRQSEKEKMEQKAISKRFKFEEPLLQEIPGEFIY
The experiment in a line: biochemical. More on the design: KINOMEscan active-site competition binding, percent of control (100 = no competition). Particulars: competition binding, percent control.

A further assay deals with NEK4 (Homo sapiens, UniProt P51957). The experiment in a line: biochemical. Particulars: competition binding, percent control. More on the design: KINOMEscan active-site competition binding, percent of control (100 = no competition).
Assay [3] has as its target T4, RSK3(Kin.Dom.2-C-terminal) (Homo sapiens, UniProt Q15349).
T4 construct: gene RPS6KA2; Kin.Dom.2-C-terminal
Nature of the assay: biochemical. Particulars: competition binding, percent control. More on the design: KINOMEscan active-site competition binding, percent of control (100 = no competition).

A further assay has as its target RIOK2 (Homo sapiens, UniProt Q9BVS4). Nature of the assay: biochemical. More on the design: KINOMEscan active-site competition binding, percent of control (100 = no competition). Particulars: competition binding, percent control.
Assay [4] has as its target T1, LIMK1. Nature of the assay: in vitro kinase enzyme assay. In kind it is biochemical.

Sequence of RIOK2 (Q9BVS4 whole entry): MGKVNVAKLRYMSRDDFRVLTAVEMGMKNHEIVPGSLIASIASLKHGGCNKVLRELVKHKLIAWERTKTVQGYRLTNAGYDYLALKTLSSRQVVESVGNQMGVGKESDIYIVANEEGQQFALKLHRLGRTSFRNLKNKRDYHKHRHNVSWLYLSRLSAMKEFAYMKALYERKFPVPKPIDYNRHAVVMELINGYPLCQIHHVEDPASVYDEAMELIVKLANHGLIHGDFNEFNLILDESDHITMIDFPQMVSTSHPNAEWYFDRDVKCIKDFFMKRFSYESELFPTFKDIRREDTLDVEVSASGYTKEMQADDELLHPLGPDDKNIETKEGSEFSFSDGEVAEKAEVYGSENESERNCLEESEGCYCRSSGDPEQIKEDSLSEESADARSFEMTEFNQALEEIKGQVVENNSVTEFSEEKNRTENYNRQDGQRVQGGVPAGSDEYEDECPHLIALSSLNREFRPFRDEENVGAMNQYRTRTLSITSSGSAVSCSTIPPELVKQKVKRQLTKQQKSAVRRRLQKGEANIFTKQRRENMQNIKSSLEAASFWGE
Sequence of LIMK2 (P53671 whole entry): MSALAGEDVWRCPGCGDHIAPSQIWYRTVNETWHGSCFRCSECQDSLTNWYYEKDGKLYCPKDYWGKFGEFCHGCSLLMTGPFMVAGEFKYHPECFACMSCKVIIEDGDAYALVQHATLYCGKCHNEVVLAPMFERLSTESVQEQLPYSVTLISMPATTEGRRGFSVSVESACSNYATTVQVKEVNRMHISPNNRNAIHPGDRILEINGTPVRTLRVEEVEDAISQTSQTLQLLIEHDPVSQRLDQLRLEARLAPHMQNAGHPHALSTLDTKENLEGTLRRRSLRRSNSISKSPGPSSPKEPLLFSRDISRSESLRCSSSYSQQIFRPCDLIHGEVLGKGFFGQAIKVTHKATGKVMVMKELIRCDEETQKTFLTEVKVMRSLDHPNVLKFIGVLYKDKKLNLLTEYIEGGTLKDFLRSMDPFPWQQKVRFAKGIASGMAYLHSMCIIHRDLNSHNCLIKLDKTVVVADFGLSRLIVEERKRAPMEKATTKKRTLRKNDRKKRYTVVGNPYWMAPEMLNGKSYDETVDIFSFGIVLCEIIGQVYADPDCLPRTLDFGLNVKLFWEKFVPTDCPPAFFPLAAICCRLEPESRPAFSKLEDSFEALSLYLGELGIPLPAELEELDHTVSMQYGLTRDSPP

As to `COc1ccc(-c2cnccc2-c2cnc(NC(=O)C(C)C)s2)c(C(F)(F)F)c1` [CRT0105446, N-{5-[3-(4-Methoxy-2-trifluoromethyl-phenyl)-pyridin-4-yl]-hiazol-2-yl}-isobutyramide], the IC50 on LIMK2 is 32 nM; against LIMK1 [4] it was 8 nM. In addition, the remaining binding at 10 µM turned out to be 2% on LIMK1 [1]; 100% on KIT(A829P); 100% in [2]; 100% on MAP3K3; 81% at DRAK1; 91% at NEK4. For the same compound, the figures for the remaining binding at 10 µM (in [3]; on RIOK2) were 93% and 16%, respectively.

On LIMK2, `Cc1ccc(-c2cnccc2-c2cnc(Nc3ccc(O)cc3)s2)c(Cl)c1` [CRT0105950, 4-{5-[3-(2-Chloro-4-methyl-phenyl)-pyridin-4-yl]-thiazol-2-ylamino}-phenol] yielded an IC50 of 1 nM. The remaining binding at 10 µM was 35% on KIT(A829P); 14% in assay [2]; 20% on MAP3K3; 100% on DRAK1; 77% at NEK4; 88% in assay [3]. Also, at RIOK2, the remaining binding at 10 µM is 2%.
